The values below are quoted from earlier work in patent US20140017187A1, “Use of 5-(7-methoxy-3,3-dimethyl-2,3-dihydro-1-benzoxepin-5-yl)-3-methyl-penta-2,4-dienoic acid as a cosmetic” (Merck Patent GmbH, priority 2008, published 2014).

The series has as its target T1, PPAR-alpha (Homo sapiens, UniProt Q07869).
T1 sequence (Q07869 1-468): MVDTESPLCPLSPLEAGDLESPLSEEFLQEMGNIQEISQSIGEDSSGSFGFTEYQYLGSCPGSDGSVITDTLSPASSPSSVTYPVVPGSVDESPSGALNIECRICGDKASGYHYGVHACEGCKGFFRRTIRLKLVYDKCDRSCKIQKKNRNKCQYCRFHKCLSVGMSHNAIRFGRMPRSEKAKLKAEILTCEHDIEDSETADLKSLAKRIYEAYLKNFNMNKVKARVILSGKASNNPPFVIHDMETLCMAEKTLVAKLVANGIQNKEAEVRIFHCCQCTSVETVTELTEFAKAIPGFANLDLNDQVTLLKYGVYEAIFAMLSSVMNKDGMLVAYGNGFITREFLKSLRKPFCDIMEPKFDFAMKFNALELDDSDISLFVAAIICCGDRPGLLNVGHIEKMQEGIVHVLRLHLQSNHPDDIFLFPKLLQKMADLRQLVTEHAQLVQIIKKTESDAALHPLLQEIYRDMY
Conditions: personal communication Johann Wiechers; cited from earlier work.

Turning to Octadecenedioic acid [O.D.A. White], the PPAR-alpha activation entry is given as “negligible”.
